Measured values as given in the supplement of paper PMC5908809.

Experiments:
[1] = system: normal NK cells expanded with K562-aAPC; experiment: percent inhibition of viability; higher = more inhibition; conditions: 72 h, IL-2 2.5 ng/mL
Experimental: (§1)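 Drug sensitivity and resistance testing on K562-aAPC-expanded normal NK cells: 5 concentrations (10-fold steps over a 10,000-fold range), 72 h at 37 °C, viability by CellTiter-Glo normalised to DMSO and benzethonium chloride controls; DSS from the fitted curve.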

DERL-7 (IL-2 2.5 ng/mL) [2] = experiment: as above; conditions: 72 h
IMC-1 (IL-2 20 ng/mL) [3] = experiment: as above; conditions: 72 h
KAI3 (IL-2 2.5 ng/mL) [4] = experiment: as above; conditions: 72 h
KHYG-1 (IL-2 2.5 ng/mL) [5] = experiment: as above; conditions: 72 h
NK-92 (IL-2 2.5 ng/mL) [6] = experiment: as above; conditions: 72 h
NK-YS (IL-2 2.5 ng/mL) [7] = experiment: as above; conditions: 72 h
NKL (IL-2 2.5 ng/mL) [8] = experiment: as above; conditions: 72 h
SNK-6 (IL-2 2.5 ng/mL) [9] = experiment: as above; conditions: 72 h
YT (IL-2 2.5 ng/mL) [10] = experiment: as above; conditions: 72 h
[11] = system: normal primary NK cells, pool 1 (3 donors) (IL-2 2.5 ng/mL); experiment: as above; conditions: 72 h
[12] = system: normal primary NK cells, pool 1 (3 donors), resting (IL-2 0 ng/mL); experiment: as above; conditions: 72 h
[13] = system: normal primary NK cells, pool 2 (3 donors) (IL-2 2.5 ng/mL); experiment: as above; conditions: 72 h
[14] = system: normal primary NK cells, pool 3 (3 donors) (IL-2 2.5 ng/mL); experiment: as above; conditions: 72 h
[15] = system: normal NK cells expanded with K562-aAPC; experiment: drug sensitivity score (DSS) (DSS units); higher = more sensitive; extreme values may be limits of the assay; conditions: 72 h; IL-2 2.5 ng/mL
Experimental: as §1

DERL-7 (IL-2 2.5 ng/mL) [16] = experiment: as above; conditions: 72 h
IMC-1 (IL-2 20 ng/mL) [17] = experiment: as above; conditions: 72 h
KAI3 (IL-2 2.5 ng/mL) [18] = experiment: as above; conditions: 72 h
KHYG-1 (IL-2 2.5 ng/mL) [19] = experiment: as above; conditions: 72 h
NK-92 (IL-2 2.5 ng/mL) [20] = experiment: as above; conditions: 72 h
NK-YS (IL-2 2.5 ng/mL) [21] = experiment: as above; conditions: 72 h
NKL (IL-2 2.5 ng/mL) [22] = experiment: as above; conditions: 72 h
SNK-6 (IL-2 2.5 ng/mL) [23] = experiment: as above; conditions: 72 h
YT (IL-2 2.5 ng/mL) [24] = experiment: as above; conditions: 72 h
[25] = system: normal primary NK cells, pool 1 (3 donors) (IL-2 2.5 ng/mL); experiment: as above; conditions: 72 h
[26] = system: normal primary NK cells, pool 1 (3 donors), resting (IL-2 0 ng/mL); experiment: as above; conditions: 72 h
[27] = system: normal primary NK cells, pool 2 (3 donors) (IL-2 2.5 ng/mL); experiment: as above; conditions: 72 h
[28] = system: normal primary NK cells, pool 3 (3 donors) (IL-2 2.5 ng/mL); experiment: as above; conditions: 72 h

CC(C)C[C@H](NC(=O)[C@H](Cc1ccccc1)NC(=O)c1cnccn1)B(O)O [Bortezomib] (max concentration tested 1000 nM)
percent inhibition of viability [%]
Conditions	0.1 nM	1 nM	10 nM	100 nM	1000 nM
DERL-7 (IL-2 2.5 ng/mL) [2]	-10.9	21.2	101	101	100
IMC-1 (IL-2 20 ng/mL) [3]	-1.29	-3.94	101	101	101
KAI3 (IL-2 2.5 ng/mL) [4]	-14.4	-0.34	102	105	97
KHYG-1 (IL-2 2.5 ng/mL) [5]	-3.11	-0.47	105	108	100
NK-92 (IL-2 2.5 ng/mL) [6]	-4.96	-5.77	102	107	98.3
NK-YS (IL-2 2.5 ng/mL) [7]	-5.54	-1.32	104	106	98.5
NKL (IL-2 2.5 ng/mL) [8]	-12.9	-8.26	105	107	98.5
SNK-6 (IL-2 2.5 ng/mL) [9]	21.6	12.7	98.5	101	100
YT (IL-2 2.5 ng/mL) [10]	-2.41	0.1	103	107	101
[1]	-2.23	4.9	100	101	100
[11]	-11.7	-7.66	97.5	98.1	98.4
[12]	-34.8	-55	91.9	94.3	94
[13]	-2.25	0.14	94.5	95.3	96.2
[14]	-3.11	-8.2	98.5	98.7	99.1

Conditions	drug sensitivity score
DERL-7 (IL-2 2.5 ng/mL) [16]	33.9
IMC-1 (IL-2 20 ng/mL) [17]	30.2
KAI3 (IL-2 2.5 ng/mL) [18]	30.6
KHYG-1 (IL-2 2.5 ng/mL) [19]	30.9
NK-92 (IL-2 2.5 ng/mL) [20]	30.2
NK-YS (IL-2 2.5 ng/mL) [21]	30.7
NKL (IL-2 2.5 ng/mL) [22]	30.3
SNK-6 (IL-2 2.5 ng/mL) [23]	32.6
YT (IL-2 2.5 ng/mL) [24]	30.8
[15]	31.2
[25]	29.3
[26]	26.8
[27]	29.2
[28]	29.5

C[C@@H](Oc1cc(-n2cnc3ccc(CN4CCN(C)CC4)cc32)sc1C(N)=O)c1ccccc1C(F)(F)F (max concentration tested 10000 nM)
percent inhibition of viability [%]
Conditions	1 nM	10 nM	100 nM	1000 nM	10000 nM
DERL-7 (IL-2 2.5 ng/mL) [2]	-5.05	5.6	99	97.7	101
IMC-1 (IL-2 20 ng/mL) [3]	-5.44	-5.88	96.8	98	99.8
KAI3 (IL-2 2.5 ng/mL) [4]	-0.2	19.3	57.2	46.8	103
KHYG-1 (IL-2 2.5 ng/mL) [5]	-6.87	20.7	99	104	109
NK-92 (IL-2 2.5 ng/mL) [6]	-10.3	68.8	96.9	98.4	108
NK-YS (IL-2 2.5 ng/mL) [7]	-6.78	7.77	68.5	63.2	107
NKL (IL-2 2.5 ng/mL) [8]	-22.4	10.7	76.8	76.5	107
SNK-6 (IL-2 2.5 ng/mL) [9]	-6.84	54.4	70.9	60.5	100
YT (IL-2 2.5 ng/mL) [10]	-6.84	0.54	79.4	64	108
[1]	-4.93	10.2	55.8	59.8	101
[11]	-0.02	-2.73	1.92	18.8	99.3
[12]	15.5	24.8	22.1	54.6	96.9
[13]	-4.17	-1.65	6.09	21.6	97.1
[14]	-0.27	-3.72	15.8	9.91	100

Conditions	drug sensitivity score
DERL-7 (IL-2 2.5 ng/mL) [16]	31.2
IMC-1 (IL-2 20 ng/mL) [17]	29.6
KAI3 (IL-2 2.5 ng/mL) [18]	19.3
KHYG-1 (IL-2 2.5 ng/mL) [19]	33.8
NK-92 (IL-2 2.5 ng/mL) [20]	38.4
NK-YS (IL-2 2.5 ng/mL) [21]	23.1
NKL (IL-2 2.5 ng/mL) [22]	27.8
SNK-6 (IL-2 2.5 ng/mL) [23]	27.6
YT (IL-2 2.5 ng/mL) [24]	27.5
[15]	19.8
[25]	8.55
[26]	15.5
[27]	8.79
[28]	7.17

Cc1cc(C)c(/C=C2\C(=O)Nc3ccccc32)[nH]1 [Semaxanib] (max concentration tested 10000 nM)
percent inhibition of viability [%]
Conditions	1 nM	10 nM	100 nM	1000 nM	10000 nM
DERL-7 (IL-2 2.5 ng/mL) [2]	-12.8	-10.6	-9.72	-14.2	-12.3
IMC-1 (IL-2 20 ng/mL) [3]	-3.23	1.84	-5.66	-0.69	-8.53
KAI3 (IL-2 2.5 ng/mL) [4]	-2.48	-0.88	2.8	17.6	4.62
KHYG-1 (IL-2 2.5 ng/mL) [5]	-1.36	0.11	0.12	6.34	1.2
NK-92 (IL-2 2.5 ng/mL) [6]	-9.95	-0.12	2.69	-5.85	-9.23
NK-YS (IL-2 2.5 ng/mL) [7]	-0.44	2.71	2.82	11.1	7.36
NKL (IL-2 2.5 ng/mL) [8]	-13.9	-12.4	-11.4	-6.8	-21.5
SNK-6 (IL-2 2.5 ng/mL) [9]	11.5	16.6	-2.4	-25	-71.7
YT (IL-2 2.5 ng/mL) [10]	1.76	-2.52	0.26	5.87	-1.2
[1]	-3.94	-4.89	-0.87	-2.28	-6.44
[11]	-10.6	-9.74	-0.67	-9.25	-0.4
[12]	-26.7	-24.9	-16.6	-29.6	-4.81
[13]	-8.9	-5	-12.5	-15.6	0.7
[14]	-10.1	-7.93	-13.2	-15.4	-11

Conditions	drug sensitivity score
DERL-7 (IL-2 2.5 ng/mL) [16]	0
IMC-1 (IL-2 20 ng/mL) [17]	0
KAI3 (IL-2 2.5 ng/mL) [18]	0.08
KHYG-1 (IL-2 2.5 ng/mL) [19]	0
NK-92 (IL-2 2.5 ng/mL) [20]	0
NK-YS (IL-2 2.5 ng/mL) [21]	0.03
NKL (IL-2 2.5 ng/mL) [22]	0
SNK-6 (IL-2 2.5 ng/mL) [23]	0
YT (IL-2 2.5 ng/mL) [24]	0
[15]	0
[25]	0
[26]	0
[27]	0
[28]	0
